PubChem BioAssay AID1648 (Sanford-Burnham Center for Chemical Genomics, 2009)
Calls of active or inactive are those of the source. How the calls were made is not given here.

These molecules were tested against Serine/threonine-protein kinase mTOR (Homo sapiens) (UniProt P42345) (assay: mTOR FRB domain ligand binding – biophysical, NMR (AID 1648)). Details: NMR binding to FRB domain, chemical shift.
Serine/threonine-protein kinase mTOR (Homo sapiens), sequence (P42345 2015-2114): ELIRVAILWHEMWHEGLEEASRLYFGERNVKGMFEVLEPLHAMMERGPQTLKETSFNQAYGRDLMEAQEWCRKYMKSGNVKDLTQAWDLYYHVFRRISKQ

SMILES | Kd
CC(=O)Nc1cccc(-c2nnc(-c3ccccc3)o2)c1 | > 4 mM (inactive)
CC(=O)Nc1cnn(Cc2ccc(Br)cc2)c1 | > 4 mM (inactive)
CCOc1cccc(C(=O)c2ccc(O)c(O)c2O)c1 | > 4 mM (inactive)
O=C(NC1CC1)c1ccccc1[N+](=O)[O-] | > 4 mM (inactive)
CN1CCN(C(=O)c2cc(-c3ccccc3)on2)CC1 | > 4 mM (inactive)
COc1ccc2c(c1OC)OC[C@@H](c1ccc(OC)c(OC)c1OC)C2 | > 4 mM (inactive)
O=C1C=C(Nc2ccccc2O)c2ccccc2C1=O | > 4 mM (inactive)
CCOC(=O)c1c(C)nc2c(C#N)cnn2c1C | > 4 mM (inactive)
COc1cnn(Cc2ccccc2)c(=O)c1Cl | > 4 mM (inactive)
O=C(O)c1cc(O)c(O)c(O)c1 | > 4 mM (inactive)
c1ccc(-c2csc3ncn4nnnc4c23)cc1 | > 4 mM (inactive)
OCCNc1ccccn1 | > 4 mM (inactive)
COc1cc2c(c(OC)c1OC)-c1ccc(OC)c(=O)cc1[C@@H](NC(C)=O)CC2 | > 4 mM (inactive)
Cc1ccc(-c2c(C)n([O-])c(C)c(C)[n+]2=O)cc1 | > 4 mM (inactive)
O=C(c1ccccc1)N1CCNCC1 | > 4 mM (inactive)
c1coc(CNc2nc(-c3ccncc3)cs2)c1 | > 4 mM (inactive)
CC(=O)Oc1ccc(N2C(=O)C3C4C=CC(O4)C3C2=O)cc1 (centres undefined) | > 4 mM (inactive)
COC(=O)N1CCN(c2ccc(OC)cc2)CC1 | > 4 mM (inactive)
CC(=O)O[C@@H]1CC2C(C)(C)[C@H](O)C=C[C@]2(C)C2CC[C@]3(C)C(=CC(=O)O[C@H]3c3ccoc3)[C@@]21C (some centres undefined) | > 4 mM (inactive)
CC(=O)O[C@H]1C[C@@H](OC(C)=O)C(C)(C)C2CC(=O)[C@]3(C)C(CC[C@@]4(C)[C@H](c5ccoc5)OC(=O)[C@H]5O[C@]543)[C@]21C (some centres undefined) | > 4 mM (inactive)
CCn1c2ccccc2c2nn(C)c(=N)nc21 | > 4 mM (inactive)
Oc1ccccc1N=Cc1cccnc1 | > 4 mM (inactive)
COc1ccc(-c2cc(=O)c3c(OC)c(OC)c(OC)c(OC)c3o2)cc1 | > 4 mM (inactive)

SMILES | Kd
O=S(=O)(NCc1ccco1)N1CCOCC1 | > 4 mM (inactive)
Cn1c(=O)c2c(ncn2C)n(C)c1=O | > 4 mM (inactive)
CC1(C)NCCN2C(=O)CSC21 (centres undefined) | > 4 mM (inactive)
COC(=O)NCc1cc2cc(Cl)ccc2[nH]1 | > 4 mM (inactive)
S=C(NCc1cccnc1)NC1CC1 | > 4 mM (inactive)
O=C(NC(=S)NC1CCSC1=O)c1ccco1 (centres undefined) | > 4 mM (inactive)
COc1cc(O)cc(/C=C/c2ccccc2)c1 | > 4 mM (inactive)
CC1(C)CC2C1CCC1(C)OC1CCC2(C)O (centres undefined) | > 4 mM (inactive)
CCOC(=O)C1C(C=C(C)C)C1(C)C (centres undefined) | > 4 mM (inactive)
CC(=O)OC1CCC2(C)C(=CC=C3C2CCC2(C)C3CCC2C(C)/C=C/C(C)C(C)C)C1(C)C (centres undefined) | > 4 mM (inactive)
Cc1cc(=O)cc(C)n1-c1ccccc1N1CCOCC1 | > 4 mM (inactive)
Cc1cc(O)cc(=O)o1 | > 4 mM (inactive)
CC(C)=CCCC1(C)C=Cc2c(O)c3c(c(CC=C(C)C)c2O1)OC12C(=CC4CC1C(C)(C)OC2(C/C=C(/C)C(=O)O)C4O)C3=O (centres undefined) | > 4 mM (inactive)
Nc1nncn1C(=O)c1c(Cl)cccc1Cl | > 4 mM (inactive)
Cc1nnc(NCc2cccnc2)[nH]c1=O | > 4 mM (inactive)
Cc1nnc(SCC(=O)NCc2ccccc2)[nH]c1=O | > 4 mM (inactive)
CN(C(=O)c1cc2cccnc2n(C)c1=O)c1ccccc1 | > 4 mM (inactive)
NC(C(=O)O)C(O)C(=O)O (centres undefined) | > 4 mM (inactive)
c1n[nH]cc1-c1cn[nH]c1 | > 4 mM (inactive)
CC(CCC(=O)O)[C@H]1CCC2C3CC[C@@H]4C[C@H](O)CC[C@]4(C)C3CC[C@@]21C (some centres undefined) | > 4 mM (inactive)
Cc1cc(C)n(S(=O)(=O)c2cc(C)c(C)cc2C)n1 | > 4 mM (inactive)
CCOC(=O)Cn1cnc2c1c(=O)[nH]c(=O)n2C | > 4 mM (inactive)
O=S(=O)(N1CCOCC1)n1nnc2ccccc21 | > 4 mM (inactive)

SMILES | Kd
COc1cccc(-c2nc(-c3ccccn3)no2)c1OC | > 4 mM (inactive)
NCc1csc(-c2cccs2)n1 | > 4 mM (inactive)
CC1(C)C(=O)[C@@H]2C[C@@]3(O)C4=CC(=O)O[C@@H](c5ccoc5)[C@]4(C)CCC3C(C)(C2=O)[C@H]1CC(=O)O (some centres undefined) | > 4 mM (inactive)
COc1ccc2c(c1)[n+](=O)c(C(C)=O)c(C)n2[O-] | > 4 mM (inactive)
Cn1c(=O)[nH]c(=O)c2c1ncn2CCN1CCCCC1 | > 4 mM (inactive)
O=S1(=O)CCC2CC=CCC21 (centres undefined) | > 4 mM (inactive)
O=C(/C=C(\O)c1ccccc1)c1ccccc1O | > 4 mM (inactive)
Cc1nc(-c2ccccc2)ncc1CO | > 4 mM (inactive)
CC(C)CCCC(C)C1CCC2C3CC(=O)[C@H]4C[C@@H](O)CC[C@]4(C)C3CC[C@]12C (some centres undefined) | > 4 mM (inactive)
O=C(Oc1ccc2c(c1)CCC2)N1CCOCC1 | > 4 mM (inactive)
CN1CCN(C2CCSC2)CC1 (centres undefined) | > 4 mM (inactive)
Nc1cccc(CC(=S)N2CCOCC2)c1 | > 4 mM (inactive)
CCC(=O)Nc1ccccc1NC(C)=O | > 4 mM (inactive)
CC(=O)OC[C@H]1O[C@@H](Oc2cc(OC(C)=O)c3c(=O)cc(-c4ccc(OC(C)=O)cc4)oc3c2)[C@H](OC(C)=O)[C@@H](OC(C)=O)[C@@H]1OC(C)=O | > 4 mM (inactive)
C=C1CCC2C(CC2(C)C)C(=C)CC/C1=N/O (centres undefined) | > 4 mM (inactive)
CCOC(=O)C1=C(O)CCN(C)C1 | > 4 mM (inactive)
NC(=O)C1CCN(C(=O)Nc2ccccc2)CC1 | > 4 mM (inactive)
CC(=O)Nc1nnc(-c2ccccn2)o1 | > 4 mM (inactive)
C#CCCCCCCCCCCCC(=O)CC(O)COC(C)=O (centres undefined) | > 4 mM (inactive)
COc1ccc(C(=O)NC2=NCCS2)cc1OC | > 4 mM (inactive)
Nc1nc(-c2ccc(O)cc2)cs1 | > 4 mM (inactive)
CC(=O)OC1CCC23C(=O)OC45CCC(C6=CC(=O)OC6)C4(C)CCC2C5CCC3(O)C1 (centres undefined) | > 4 mM (inactive)
O=C(COc1ccccc1Cl)N1CCCC1 | > 4 mM (inactive)

SMILES | Kd
COCc1cc(Cl)nc(-c2csc(C)n2)n1 | > 4 mM (inactive)
O=c1c(O)c(-c2ccccc2)oc2ccc3occc3c12 | > 4 mM (inactive)
CCOC(=O)C1CN(C)CCN1C (centres undefined) | > 4 mM (inactive)
O=c1/c(=C/c2cccs2)sc2ncnn12 | > 4 mM (inactive)
COC(=O)c1c[nH]c2ccccc12 | > 4 mM (inactive)
S=c1[nH]cnc2sccc12 | > 4 mM (inactive)
CN(C)c1nc(N)nc(Cn2ccnc2)n1 | > 4 mM (inactive)
CC(=O)CC1(O)C(=O)Nc2ccccc21 (centres undefined) | > 4 mM (inactive)
CCCCCCCCCCCC1=C(O)C(=O)C=C(O)C1=O | > 4 mM (inactive)
CC(=O)Nc1ccncc1NC(C)=O | > 4 mM (inactive)
Cc1nn(-c2ccccc2)nc1C(N)=O | > 4 mM (inactive)
COc1c(O)cccc1O | > 4 mM (inactive)
O=C(N1CCOCC1)N1CCN(c2ccccn2)CC1 | > 4 mM (inactive)
Cn1c(SCC(N)=O)nnc1-c1cccnc1 | > 4 mM (inactive)
CC(=O)O[C@@H]1CC2C(C)(C)C(=O)C=C[C@]2(C)C2CC[C@@]3(C)[C@H](c4ccoc4)OC(=O)[C@H]4O[C@]43[C@@]21C (some centres undefined) | > 4 mM (inactive)
NC(=O)c1cccc(Cl)n1 | > 4 mM (inactive)
CC(=O)OC1CC[C@@]2(C)C(CCC3C2CC[C@]2(C)C(C4=CC(=O)OC4)C(OC(C)=O)CC32O)C1 (some centres undefined) | > 4 mM (inactive)
O=C(CSc1cccc2cccnc12)N1CCCC1 | > 4 mM (inactive)
Fc1ccc(CN2CCCNCC2)cc1 | > 4 mM (inactive)
O=C(O)c1cc(O)c2c(c1)C(=O)c1cc(O)cc(O)c1C2=O | > 4 mM (inactive)
O=C1NC(=O)C(Cc2cccs2)C(=O)N1 | > 4 mM (inactive)
Cn1cnc2cc(NC(=O)c3ccco3)ccc21 | > 4 mM (inactive)
Cc1occc1C(=O)Nc1nnc(C2CCCCC2)s1 | > 4 mM (inactive)

SMILES | Kd
NC(=O)C1(S(=O)(=O)c2ccccc2)CC1 | > 4 mM (inactive)
CN(C)C(=O)N1CCN(C(=O)c2ccco2)CC1 | > 4 mM (inactive)
COc1ccc(-c2cc(=O)c3cc(OC)ccc3o2)cc1 | > 4 mM (inactive)
CC(=O)Nc1nnc(-c2ccccc2)o1 | > 4 mM (inactive)
O=C(O)CN(CCCc1ccccc1)CC(=O)O | > 4 mM (inactive)
COc1ccc(CN2CCOCC2)c(C)c1C | > 4 mM (inactive)
CN1CCC2(CC1)CC1CC3C=CC1(CN2)O3 (centres undefined) | > 4 mM (inactive)
CC1(C)CC(=O)c2cnn(-c3nc4ccccc4[nH]3)c2C1 | > 4 mM (inactive)
O=S1(=O)CCC(Nc2ccccc2)C1 (centres undefined) | > 4 mM (inactive)
COC(=O)Cc1cccc(OC)c1 | > 4 mM (inactive)
CS(=O)(=O)Nc1ccccc1C(=O)c1ccccc1 | > 4 mM (inactive)
Nc1c2c3c(sc2nc(=O)n1N)CCCC3 | > 4 mM (inactive)
COc1cc2c(c(OC)c1OC)-c1ccc(O)c(=O)cc1[C@@H](NC(C)=O)CC2 | > 4 mM (inactive)
CC1CCCN(C/C(O)=C(\C#N)c2nc3ccccc3[nH]2)C1 (centres undefined) | > 4 mM (inactive)
Cc1cc(C)n(CCCC(=O)O)n1 | > 4 mM (inactive)
O=C(O)CS(=O)(=O)c1ccccc1[N+](=O)[O-] | > 4 mM (inactive)
CC(=O)Nc1ccn(Cc2c(F)cccc2Cl)n1 | > 4 mM (inactive)
O=c1c(O)cc([C@H]2Oc3cc(O)cc(O)c3C[C@H]2O)cc2c([C@H]3Oc4cc(O)cc(O)c4C[C@H]3O)cc(O)c(O)c12 | > 4 mM (inactive)
Nc1ccc2c(c1)S(=O)(=O)C=C2 | > 4 mM (inactive)
O=C(c1ccco1)N1CCN(Cc2cccc(F)c2)CC1 | > 4 mM (inactive)
C[C@@H]1C(=O)O[C@H]2[C@H]1CC[C@@]1(C)C=CC(=O)[C@@]3(C)O[C@@]213 | > 4 mM (inactive)
O=C1CSC(=Nc2ccc(O)cc2)N1 | > 4 mM (inactive)
